Data reported in the NIST ThermoML archive (doi:10.1016/j.jct.2011.08.028).
Numbers after ± are expanded uncertainties.

Legend:
[1] = refractive index (Na D-line) (dimensionless); xn = mol fraction of the nth substance listed; settings: 298.15 K, 101 kPa, Liquid, Standard Abbe refractometry
[2] = xn = mol fraction of the nth substance listed; settings: 298.15 K, 101 kPa, Liquid; for speed of sound: Sing-around technique in a fixed-path interferometer; for mass density: Vibrating tube method
[3] = 298.15 K, 101 kPa, Liquid; for speed of sound: Sing-around technique in a fixed-path interferometer; for mass density: Vibrating tube method
[4] = refractive index (Na D-line) (dimensionless); settings: 298.15 K; 101.33 kPa; Liquid; Standard Abbe refractometry

CCCn1cc[n+](C)c1.O=S(=O)([N-]S(=O)(=O)C(F)(F)F)C(F)(F)F + CCO
Settings | mass density, [2] [kg/m3] | refractive index, [1] | speed of sound, [2] [m/s]
x2 = 0 | 1474.44 ± 0.65 | 1.42525 ± 0.0007 | 1232 ± 2
x2 = 0.053 | 1465.87 ± 0.6 | 1.42443 ± 0.0007 | 1230 ± 2
x2 = 0.099 | 1458.19 ± 0.56 | 1.42378 ± 0.0007 | 1227 ± 2
x2 = 0.1914 | 1441.04 ± 0.49 | 1.42214 ± 0.0007 | 1223 ± 2
x2 = 0.2948 | 1418.06 ± 0.42 | 1.42008 ± 0.00069 | 1216 ± 2
x2 = 0.3909 | 1391.82 ± 0.37 | 1.41788 ± 0.00069 | 1209 ± 2
x2 = 0.4992 | 1354.59 ± 0.34 | 1.41421 ± 0.00068 | 1200 ± 2
x2 = 0.5912 | 1313.64 ± 0.32 | 1.41045 ± 0.00068 | 1190 ± 2
x2 = 0.6978 | 1249.77 ± 0.28 | 1.4045 ± 0.00068 | 1176 ± 2
x2 = 0.7938 | 1167.28 ± 0.26 | 1.39689 ± 0.00068 | 1162 ± 2
x2 = 0.895 | 1033.88 ± 0.18 | 1.38426 ± 0.00068 | 1146 ± 2
x2 = 0.9431 | 940.65 ± 0.16 | 1.37524 ± 0.00068 | 1142 ± 2

CCCO [propan-1-ol]
Settings | mass density [kg/m3] | refractive index | speed of sound [m/s]
[3] | 800.09 ± 0.12 | – | 1207 ± 2
[4] | – | 1.38307 ± 0.00068 | –

CCCn1cc[n+](C)c1.O=S(=O)([N-]S(=O)(=O)C(F)(F)F)C(F)(F)F + CC(C)O
Settings | mass density, [2] [kg/m3] | refractive index, [1] | speed of sound, [2] [m/s]
x2 = 0 | 1474.44 ± 0.65 | 1.42525 ± 0.0007 | 1232 ± 2
x2 = 0.0493 | 1463.7 ± 0.6 | 1.42452 ± 0.0007 | 1228 ± 2
x2 = 0.0921 | 1454.1 ± 0.57 | 1.42385 ± 0.0007 | 1226 ± 2
x2 = 0.291 | 1401.23 ± 0.43 | 1.42016 ± 0.00069 | 1212 ± 2
x2 = 0.4093 | 1360.46 ± 0.37 | 1.41732 ± 0.00069 | 1202 ± 2
x2 = 0.5071 | 1318.46 ± 0.37 | 1.41439 ± 0.00069 | 1191 ± 2
x2 = 0.6113 | 1262.2 ± 0.32 | 1.41043 ± 0.00068 | 1178 ± 2
x2 = 0.6964 | 1203.91 ± 0.3 | 1.40624 ± 0.00068 | 1166 ± 2
x2 = 0.803 | 1106.76 ± 0.24 | 1.39926 ± 0.00068 | 1148 ± 2
x2 = 0.9009 | 979.02 ± 0.16 | 1.39013 ± 0.00068 | 1135 ± 2
x2 = 0.9503 | 892.06 ± 0.14 | 1.38375 ± 0.00068 | 1134 ± 2

CC(C)O [propan-2-ol]
Settings | mass density [kg/m3] | refractive index | speed of sound [m/s]
[3] | 780.98 ± 0.13 | – | 1139 ± 2
[4] | – | 1.375 ± 0.00068 | –

CCCn1cc[n+](C)c1.O=S(=O)([N-]S(=O)(=O)C(F)(F)F)C(F)(F)F + CCCO
Settings | mass density, [2] [kg/m3] | refractive index, [1] | speed of sound, [2] [m/s]
x2 = 0 | 1474.44 ± 0.65 | 1.42525 ± 0.0007 | 1232 ± 2
x2 = 0.0787 | 1457.82 ± 0.57 | 1.42424 ± 0.0007 | 1228 ± 2
x2 = 0.1022 | 1452.69 ± 0.55 | 1.42391 ± 0.0007 | 1227 ± 2
x2 = 0.247 | 1417.04 ± 0.44 | 1.42164 ± 0.00069 | 1220 ± 2
x2 = 0.39 | 1372.22 ± 0.36 | 1.41887 ± 0.00069 | 1212 ± 2
x2 = 0.442 | 1352.74 ± 0.35 | 1.41758 ± 0.00069 | 1208 ± 2
x2 = 0.4877 | 1333.71 ± 0.35 | 1.41661 ± 0.00068 | 1205 ± 2
x2 = 0.569 | 1294.62 ± 0.32 | 1.41422 ± 0.00068 | 1198 ± 2
x2 = 0.6455 | 1250.12 ± 0.29 | 1.41148 ± 0.00068 | 1191 ± 2
x2 = 0.703 | 1209.58 ± 0.27 | 1.40897 ± 0.00068 | 1187 ± 2
x2 = 0.75 | 1170.92 ± 0.26 | 1.40667 ± 0.00068 | 1183 ± 2
x2 = 0.8048 | 1117.65 ± 0.23 | 1.40345 ± 0.00068 | 1179 ± 2
x2 = 0.8492 | 1066.16 ± 0.27 | 1.40025 ± 0.00068 | 1178 ± 2
